Reference: the pKa sets of Baltruschat and Czodrowski (2020)

SMILES | pKa (basic group) | pKa (acidic group)
[O-]c1ccnc[nH+]1 | 1.77 | 
CCCc1ccc([C@@H]2CCC[NH+]2C)cn1 | 3.65 | 
O=C(O)c1ccccc1CO |  | 3.84
O=C(NBr)c1ccccc1 |  | 7.3
CSc1nc2cc3c(cc2[nH]1)CCCC3 | 5 | 13
N[C@H]1C[C@@H]2CCCC[C@H]2C[C@@H]1[NH3+] | 6.97 | 
O=C(O)c1ccccc1/N=C/C=C/c1ccccc1 |  | 6.12
O=C(Cc1ccccc1)c1cc[n+](Cc2ccccc2)cc1 |  | 8.8
Cc1cccc2ccc(O)cc12 |  | 9.42
CCNc1nc(Cl)nc(NC(C)C)n1 | 1.61 | 
CN(C)C(C)(C)C | 10.5 | 
CC(C)(C)NCCCCCCNC(C)(C)C | 11 | 
CCCCOC(=O)c1ccc[n+](O)c1 |  | 0.03
N#CC(O)=C(C#N)C#N |  | 1.9
N=C(c1ccccc1)c1ccc(O)cc1 | 6.45 | 
Cn1c(N)nc(=O)c2[nH]cnc21 | 4.61 | 
NC(=O)[C@H](CCC(=O)O)NC=O |  | 4.3
C[C@@H](CN)c1ccccc1 | 9.94 | 
Cn1cc(N)cc1C(=O)[O-] | 7 | 
O/N=C/c1ccccc1 |  | 10.8
[O-]c1ccnc([O-])c1 | 13 | 
O=C([O-])C[NH2+]CCc1nnn[nH]1 |  | 4.32

SMILES | pKa (basic group) | pKa (acidic group)
CN1Cc2c(ccc3c2OCO3)-c2ccc3cc4c(cc3c21)OCO4 | 2.6 | 
CCCN(CCC)Cc1ccccc1O | 8.3 | 
Cc1ccc([Se]CC(=O)O)cc1 |  | 3.86
CNc1cccnc1 | 6.41 | 
N=C(c1ccccc1)c1cccc(O)c1 | 6.92 | 
NCCc1cccc(O)c1O | 8.6 | 
Cc1ccc(Cl)cc1/C(=N/CCC[NH+](C)C)c1ccccc1 | 3.87 | 
Cc1ccc(-c2ncc(-c3ccc(Cl)cc3)o2)cc1 | 0.88 | 
CN(C)c1ccc2c(c1)Sc1cc([NH+](C)C)ccc1N2 | 5.27 | 
COc1ccc(S(=O)(=O)CCN2CCCCC2)c(OC)c1OC | 7.24 | 
O=C1CCCC2CCCC(=O)C12 (stereo not drawn) |  | 11.1
C/C(=N\O)C(=O)[O-] |  | 11.4
CC(=O)N(C)c1ccncc1 | 4.62 | 
CCN(CC)CC(C)Nc1c2ccc(Cl)cc2nc2ccc(OC)cc12 (stereo not drawn) | 9.65 | 
COc1ccc(S(=O)(=O)Nc2ccccc2)cc1 |  | 8.66
Cc1ccc(O)c(Cc2cc([N+](=O)[O-])ccc2[O-])c1 |  | 11.5
O=c1cccc([O-])cc1O |  | 9.52
Nc1n[nH]c(N)c1/N=N/c1ccccc1O | 3.51 | 8.22
Cc1cnc2c(O)cccc2c1 | 4.93 | 9.75
COc1ncnc2c1cnn2C | 2.51 | 
CCCC(=O)OO |  | 8.2
[O-]c1ccnc2nccnc12 | 8.78 | 

SMILES | pKa (basic group) | pKa (acidic group)
CCC(C)(C)Nc1ccccc1 | 6.55 | 
c1ccc(C2=NCCC2)cc1 | 7.2 | 
Oc1cc(-c2ccccc2)no1 |  | 4.01
Nc1ccnc([O-])n1 | 12.2 | 
C=C(SC1CCCCC1)C(=O)O |  | 3.4
O=C(Cc1ccc2ccc3cccnc3c2n1)c1ccccc1 | 4.4 | 
COc1cc2c(cc1OC)C13CCN4C1CC1C(=CCOC5CC(=O)N2C3C51)[C@@H]4S(=O)(=O)[O-] (stereo partly drawn) | 3.12 | 
[S-]c1nc(S)c2[nH]cnc2n1 |  | 9.97
CC1CC(/C=C2\CC(C)(C)CN2)=NC1(C)C (stereo not drawn) | 12.1 | 
Oc1ccc(-c2ccc(O)cc2)cc1 |  | 9.4
CO[C@H]1CC=C2CCN3CCC(CO)=C(CCO)[C@]23C1 | 8.69 | 
OCc1ccncc1 | 5.41 | 
CN(C)c1ccc(C(=N)c2ccc(N(C)C)cc2)cc1 | 10.7 | 
CC1=CC(C)=N/C1=C/c1[nH]c(C)cc1C | 8.4 | 
CNCl | 1.71 | 
Oc1cccc2c1Nc1ccccc1N2 |  | 10.9
Nc1c(Br)cccc1Br | 0.36 | 
C[Si](C)(C)CCCCC(=O)O |  | 4.96
COc1ccc2c3c1O[C@H]1[C@@H](O)C=C[C@H]4[C@@H]([C@H]2O)N(C)CC[C@@]341 | 7.12 | 
Oc1ccc2cc3ccccc3cc2c1 |  | 9.92
O/N=C/c1ccc(O)cc1O |  | 8.05
